Laboratory results published in ChEMBL document CHEMBL3637782, “GSK Tres Cantos Follow-up TB Screening Data” (2016).
Values after ≈ are worked out from the molar mass of the structure shown.

Test system: Mycobacterium tuberculosis H37Rv
Assay: GSK_TB: Minimum inhibitory concentration against isoniazid and rifampicin resistant clinical isolates of Mycobacterium tuberculosis
Assay type: functional
Conditions: ATCC25618

SMILES	MIC
CNc1snc(C)c1C(=O)NCCOc1ccc(OC)cc1	0.9 µM (≈ 0.289 µg/mL)
COc1ccc(-c2nnc3sc(Cc4csc(C)n4)nn23)cc1	1.3 µM (≈ 0.446 µg/mL)
Nc1ccc(C(O)CNCCc2ccccc2)cc1O (centres undefined)	1.3 µM (≈ 0.354 µg/mL)
O=C(Nc1nc2c(s1)CCCc1cccnc1-2)c1ccccc1C(F)(F)F	1.3 µM (≈ 0.506 µg/mL)
NC(=O)c1ccc(CN(C2CC2)S(=O)(=O)c2ccccc2F)cc1	5 µM (≈ 1.74 µg/mL)
CN(Cc1ccc(Cl)cc1)C(=O)CCc1nc2ccccc2oc1=O	1.3 µM (≈ 0.464 µg/mL)
Clc1nnc(N2CCCC2)c2ccccc12	0.6 µM (≈ 0.14 µg/mL)
CCOCn1ccc(NS(=O)(=O)c2ccc(N)cc2)nc1=O	20 µM (≈ 6.49 µg/mL)
COc1ccc(CCNC(=O)C2(n3cnnn3)CCCCC2)cc1	2.5 µM (≈ 0.824 µg/mL)
